For the first assay, the target named is T1, G1 APOL1 (Homo sapiens, UniProt O14791, I384M/S342G).
T1 construct: expressed in transfected cells
T1 sequence (O14791 28-398 S342G/I384M): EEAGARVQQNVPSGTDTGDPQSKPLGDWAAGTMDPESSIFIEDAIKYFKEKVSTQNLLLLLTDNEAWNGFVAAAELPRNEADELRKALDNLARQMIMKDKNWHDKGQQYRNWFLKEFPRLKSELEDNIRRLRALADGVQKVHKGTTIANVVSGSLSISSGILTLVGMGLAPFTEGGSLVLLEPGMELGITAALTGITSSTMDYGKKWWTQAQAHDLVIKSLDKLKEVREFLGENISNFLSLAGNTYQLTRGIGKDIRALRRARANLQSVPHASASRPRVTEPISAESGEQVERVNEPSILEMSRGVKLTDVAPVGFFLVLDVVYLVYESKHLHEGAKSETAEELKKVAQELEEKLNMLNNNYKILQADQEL
Kind of assay: Acute APOL1 Thallium Assay with inducible stable clones of HEK 293 cells. It is filed as cell-based. As to conditions: HEK 293 T-Rex cells expressing G1 APOL1; read-out: Thallium Assay (IC50). The text has this: Acute APOL1 Thallium Assay with Inducible Stable Clones of HEK 293 Cells
Apolipoprotein L1 (APOL1) proteins form potassium-permeable cation pores in the plasma membrane. APOL1 risk variants (G1 and G2) induce greater potassium flux than G0 in HEK293 cells. This assay exploits the permeability of thallium (Tl+) through ligand-gated potassium channels. The dye produces a bright fluorescent signal upon binding to Tl+ conducted through potassium channels. The intensity of the Tl+ signal is proportional to the number of potassium channels in the open state. Therefore, it provides a functional indication of the potassium channel activities. During the initial dye-loading step, the Tl+ indicator dye as an acetoxymethyl (AM) ester enters the cells through passive diffusion. Cytoplasm esterases cleave the AM ester and relieve its active thallium-sensitive form. The cells are then stimulated with Tl+. The increase of fluorescence in the assay represents the influx of Tl+ into the cell specifically through the potassium channel (i.e. through APOL1 pores), providing a functional measurement of potassium channel/pore activity. The Thallium assay is conducted with cells expressing G1 APOL1.
APOL1 Cell Line (HEK T-Rex Stable Inducible Cell Line) • HEK T-Rex System • Tetracycline (Tet) inducible mammalian expression system. • Stably express the Tet repressor to regulate transcription. • Expression under the full-length CMV promoter. • APOL1 stable inducible cell line Clone used: G1 DC3.25
Tissue Culture Media • Cell Culture Medium • DMEM+10% FBS+P/S+5 μg/mL blasticidin+1 μg/mL puromycin. • 500 mL DMEM+55 mL FBS+5 mL P/S+280 μL blasticidin S HCl (10 mg/mL)+56 μL puromycin (10 mg/mL). • Cell Assay Medium • DMEM with 2% FBS+pen strep.
Instruments and Equipment • Nuaire cell culture hood, Cat. No. 540-600 • 37° C./5% CO2 incubator link to robotic arm, Liconic: STX110 • Molecular Devices FLIPR^Tetra High throughput cellular screening system, Cat. No. FT0324, Molecular Devices • ThermoFisher MultiDrop 384, Cat. No. 5840300 • Biotek Microfill, Cat. No. ASF1000A-4145 • BioRad TC10 cell counter, Cat. No. 145-0010 Assay Procedures
Cells Scaled Up from Frozen Vials • APOL1 G1 3.25 (HEK293 T-Rex) frozen vials: 5 million cells per vial • Step 1, Day 1: Defrost frozen vial into T-225. • Step 2, Day 5: (when 85% confluent): Split one T-225 at 3×10^6 cells per flask. • Step 3, Day 8: Splits cells to set up for the assay plates as described below.
T-Rex APOL1 HEK cells are split twice per week to keep the confluence state below 85% of the culture flask surface area. Cells can be kept until passage 25. • Cell Culture Medium • DMEM high glucose+10% FBS, +P/S, +5 μg/mL blasticidin, +1 μg/mL puromycin. • 500 mL DMEM, +55 mL FBS, +5 mL P/S, +280 μL blasicidin 10 mg/mL, +56 μL Puromycin 10 mg/mL. • Assay Media • Opti-MEM reduced serum medium from Invitrogen.
Preparation of Cell Assay Plates • Culture medium is removed from the x cm^2 T-flask by aspiration. • The cell monolayer is rinsed with PBS 1× at room temperature. PBS is removed by aspiration. • Cells are trypsinized using Trypsin. • The flasks are incubated at room temperature for 2-3 minutes. • Complete DMEM medium is then added. Cell suspension is then transferred to a 50 mL Falcon polypropylene tube. • Cells are then counted using a Biorad TC10 cell counter and the required amount of cells are centrifuged at 1200 RPM for 5 minutes. Required amount is 1.3×10^6 cells/mL APOL1 T-Rex HEK cells. • The pellet is suspended in the assay medium. • Using the MultiDrop, add 20 μL to each well (corresponds to 26000 cells total per well) of a 384-well black, transparent, flat bottom Poly-D coated plate. • Tetracycline as prepared in the following section is added to the cells before plating to induce APOL1 expression. • Plates are left at room temperature for 20 to 30 minutes before incubation at 37° C. and 5% CO2. […]
One may read the IC50 as the concentration needed to halve the response being measured. With `CC1(C(=O)NC2(CO)CC2)CC(c2c(-c3ccc(F)cc3)[nH]c3c(F)cc(F)cc23)C1` (mixture of isomers) [Compound 281], the IC50 is less than 250 nM. Same read-out and setting: in the case of `Cn1cnc(CNC(=O)C2(C)CC(c3c(-c4ccc(F)cc4)[nH]c4c(F)cc(F)cc34)C2)c1` (mixture of isomers) [Compound 282] it was 250 to 1000 nM; in that of `CC1(C(=O)NCCO)CC(c2c(-c3ccc(F)cc3)[nH]c3c(F)cc(F)cc23)C1` (mixture of isomers) [Compound 283], 250 to 1000 nM. On the same count and under the same terms, under `CC1(C(=O)N[C@H]2CCNC2=O)CC(c2c(-c3ccc(F)cc3)[nH]c3c(F)cc(F)cc23)C1` (mixture of isomers) [Compound 284] stands 250 to 1000 nM.

As for `CC(CO)NC(=O)[C@H]1C[C@@H](c2c(-c3ccc(F)cc3)[nH]c3c(F)cc(F)cc32)C1` (mixture of isomers) [Compound 243], the IC50 is more than 1000 nM.

As to `C[C@@H](CO)NC(=O)[C@H]1C[C@H](c2c(-c3ccc(F)cc3)[nH]c3c(F)cc(F)cc32)C1` [Compound 27], the IC50 was less than 250 nM. For `O=C([C@H]1C[C@H](c2c(-c3ccc(F)cc3)[nH]c3c(F)cc(F)cc32)C1)N1CCOC(CO)C1` (some centres unmarked) [Compound 151], the IC50 is more than 1000 nM.

For `O=C([C@H]1C[C@H](c2c(-c3ccc(F)cc3)[nH]c3c(F)cc(F)cc32)C1)N1CCOC(CO)C1` (some centres unmarked) [Compound 152], the half-maximal inhibitory concentration (IC50) is more than 1000 nM. On the same count and under the same terms, under `O=C(N[C@@H]1CC[C@H](O)C1)[C@H]1C[C@H](c2c(-c3ccc(F)cc3)[nH]c3c(F)cc(F)cc32)C1` [Compound 180] stands more than 1000 nM. Consider `O=C(N[C@H]1CC[C@H](O)C1)[C@H]1C[C@H](c2c(-c3ccc(F)cc3)[nH]c3c(F)cc(F)cc32)C1` [Compound 187], for which the IC50 is more than 1000 nM. Still for that read-out and setting: under `C[C@H](CO)N(C)C(=O)[C@H]1C[C@H](c2c(-c3ccc(F)cc3)[nH]c3c(F)cc(F)cc32)C1` [Compound 190] stands 250 to 1000 nM; under `O=C(NC(CO)(CO)CO)[C@H]1C[C@H](c2c(-c3ccc(F)cc3)[nH]c3c(F)cc(F)cc32)C1` [Compound 226], less than 250 nM. The same measure, in the same setting: under `O=C1NC[C@@H](O)[C@@H]1NC(=O)[C@H]1C[C@H](c2c(-c3ccc(F)cc3)[nH]c3c(F)cc(F)cc32)C1` [Compound 229] stands less than 250 nM; under `O=C(N[C@@H](CO)C(F)F)[C@H]1C[C@H](c2c(-c3ccc(F)cc3)[nH]c3c(F)cc(F)cc32)C1` [Compound 230], less than 250 nM; under `O=C(CNC(=O)[C@H]1C[C@H](c2c(-c3ccc(F)cc3)[nH]c3c(F)cc(F)cc32)C1)NCCO` [Compound 231], more than 1000 nM.

Consider `C[C@H](CO)NC(=O)CNC(=O)[C@H]1C[C@H](c2c(-c3ccc(F)cc3)[nH]c3c(F)cc(F)cc32)C1` [Compound 232], for which the IC50 is more than 1000 nM. On the same count and under the same terms, under `O=C(CNC(=O)[C@H]1C[C@H](c2c(-c3ccc(F)cc3)[nH]c3c(F)cc(F)cc32)C1)NC[C@@H](O)C(F)(F)F` [Compound 233] stands more than 1000 nM; under `O=C(CNC(=O)[C@H]1C[C@H](c2c(-c3ccc(F)cc3)[nH]c3c(F)cc(F)cc32)C1)NC[C@H](O)C(F)(F)F` [Compound 234], more than 1000 nM. Regarding `O=C1NCC[C@H]1NC(=O)[C@H]1C[C@@H](c2c(-c3ccc(F)cc3)[nH]c3c(F)cc(F)cc32)C1` [Compound 236], the IC50 was more than 1000 nM. As for `O=C(NCCO)[C@H]1C[C@@H](c2c(-c3ccc(F)cc3)[nH]c3c(F)cc(F)cc32)C1` [Compound 237], the concentration for half-maximal inhibition (IC50) fell in the range of 250 to 1000 nM. For `O=C(NCC(F)F)[C@H]1C[C@@H](c2c(-c3ccc(F)cc3)[nH]c3c(F)cc(F)cc32)C1` [Compound 238], the IC50 was in the range of 250 to 1000 nM.

For `O=C(NC1CC(O)C1)[C@H]1C[C@@H](c2c(-c3ccc(F)cc3)[nH]c3c(F)cc(F)cc32)C1` (some centres unmarked) [Compound 239], the concentration for half-maximal inhibition (IC50) was more than 1000 nM.

As for `O=C(NC1(CO)CCC1)[C@H]1C[C@@H](c2c(-c3ccc(F)cc3)[nH]c3c(F)cc(F)cc32)C1` [Compound 240], the IC50 lay in the range of 250 to 1000 nM. `O=C(NC(CO)CO)[C@H]1C[C@@H](c2c(-c3ccc(F)cc3)[nH]c3c(F)cc(F)cc32)C1` [Compound 241]: the half-inhibitory concentration (IC50) was more than 1000 nM. With `COCCNC(=O)[C@H]1C[C@@H](c2c(-c3ccc(F)cc3)[nH]c3c(F)cc(F)cc32)C1` [Compound 242], the IC50 is more than 1000 nM. The same measure, in the same setting: in the case of `O=C(NCC(O)CO)[C@H]1C[C@@H](c2c(-c3ccc(F)cc3)[nH]c3c(F)cc(F)cc32)C1` (some centres unmarked) [Compound 244] it was more than 1000 nM.

Staying with this assay, now noted: Table 24, Compounds 287 to 465; read-out: Thallium Assay (IC50).
On to `CC(NC(=O)C1CC(Cc2c(-c3ccc(F)cc3)[nH]c3c(F)cc(F)cc23)C1)c1ccn(C)n1` (mixture of isomers) [Compound 312], for which the IC50 was more than 1000 nM.

In the case of `CC1(CNC(=O)C2CC(Cc3c(-c4ccc(F)cc4)[nH]c4c(F)cc(F)cc34)C2)CCOC1` (mixture of isomers) [Compound 332], the half-maximal inhibitory concentration (IC50) was more than 1000 nM. For `CC1(NC(=O)C2CC(Cc3c(-c4ccc(F)cc4)[nH]c4c(F)cc(F)cc34)C2)CCOC1` (mixture of isomers) [Compound 334], the IC50 was more than 1000 nM. Same read-out and setting: in the case of `CC(NC(=O)C1CC(Cc2c(-c3ccc(F)cc3)[nH]c3c(F)cc(F)cc23)C1)C1CCOC1` (mixture of isomers) [Compound 345] it was more than 1000 nM; in that of `CC(O)C(C)NC(=O)O[C@H]1C[C@H](c2c(-c3ccc(F)cc3)[nH]c3c(F)cc(F)cc32)C1` (mixture of isomers) [Compound 363], more than 1000 nM; in that of `CNC(=O)C(C)NCC1CC(c2c(-c3ccc(F)cc3)[nH]c3c(F)cc(F)cc23)C1` (mixture of isomers) [Compound 436], 250 to 1000 nM. On the same count and under the same terms, in the case of `CC(CO)NC(=O)O[C@H]1C[C@H](c2c(-c3ccc(F)cc3)[nH]c3c(F)cc(F)cc32)C1` (mixture of isomers) [Compound 356] it was 250 to 1000 nM; in that of `COCC(C)NC(=O)O[C@H]1C[C@H](c2c(-c3ccc(F)cc3)[nH]c3c(F)cc(F)cc32)C1` (mixture of isomers) [Compound 360], 250 to 1000 nM. Same read-out and setting: under `CC(O)(CO)CNC(=O)O[C@H]1C[C@H](c2c(-c3ccc(F)cc3)[nH]c3c(F)cc(F)cc32)C1` (mixture of isomers) [Compound 378] stands more than 1000 nM.

With `CC1(C)CC(C)(NC(=O)NC[C@H]2C[C@H](c3c(-c4ccc(F)cc4)[nH]c4c(F)cc(F)cc43)C2)C(=O)O1` (mixture of isomers) [Compound 392], the IC50 was more than 1000 nM.

`CC(CO)N(C)C(=O)NC[C@H]1C[C@H](c2c(-c3ccc(F)cc3)[nH]c3c(F)cc(F)cc32)C1` (mixture of isomers) [Compound 412]: the IC50 was more than 1000 nM. Still for that read-out and setting: in the case of `CC1(NC(=O)NC[C@H]2C[C@H](c3c(-c4ccc(F)cc4)[nH]c4c(F)cc(F)cc43)C2)CCNC1=O` (mixture of isomers) [Compound 426] it was more than 1000 nM.

Source of the values: patent publication US12116343B2, “Inhibitors of APOL1 and methods of using same” (Vertex Pharmaceuticals Incorporated, priority 2020, dated 2024).
